Source: patent US20260258003A1, “SLACK-ACTIVATING COMPOUNDS AND THEIR MEDICAL USE” (Johann Wolfgang Goethe-Universität Frankfurt am Main, priority 2023, published 2026)
Where two headings read alike, the source gives them in different places.

Experiments:
[1] = In vivo pharmacokinetic study, plasma and brain levels by LC-MS; set-up: species or system mice; settings: male, C57BL/6, mouse, in vivo, ip
Procedure: The compounds pharmacokinetic properties were examined in vivo by administering the compounds intraperitoneally (i.p.) at 1 mg/kg in mice, and determining plasma and brain levels over 8 h by LC-MS measurements.
The pharmacokinetic study was performed by Pharmacelsus (Saarbrücken, Germany). In total 27 male C57BL/6 mice (8 weeks old, 23-31 g body weight, purchased from Janvier Labs, France) were used. The animals were housed in a temperature-controlled room (20-24° C.) and maintained in a 12 h light/dark cycle. Food and water were available ad libitum. All experimental procedures were approved by and conducted in accordance with the regulations of the local Animal Welfare authorities (Landesamt für Gesundheit und Verbraucherschutz, Abteilung Lebensmittel-und Veterinärwesen, Saarbrücken).
The animals were divided into 3 groups (9 mice/group) and a cassette dosing was performed, in which the mice received a single dose of 1 mg/kg body weight of 3-4 compounds (dissolved in 0.9% NaCl containing 20% cyclodextrine) i.p. simultaneously. From each animal 2 blood samples were collected from the retrobulbar venous plexus under short isoflurane anesthesia (at 0.25 h and 0.5 h from 3 mice; at 1 h and 2 h from 3 mice; and at 4 h and 8 h from 3 mice). Li-heparin was used as anticoagulant. Plasma samples were obtained by centrifugation for 10 min at 3000× g and 4° C. Immediately after the last blood sample the animal was sacrificed by cervical dislocation and the brain was removed and frozen in liquid nitrogen. Plasma and brain samples were stored at −80° C. until LC-MS analysis.
For all other compounds, the HPLC system consisted of a U-HPLC pump (Accela) and an AS Open auto sampler (Thermo Fisher Scientific, USA), and mass spectrometry was performed on a Q Exactive (Orbitrap) accurate mass spectrometer equipped with a heated electrospray (H-ESI) interface (Thermo Fisher Scientific, USA) connected to a PC running the standard software Chromeleon 7.2. For all compounds, the HPLC pump flow rate was set to 600 μl/min and the compounds were separated on an analytical column with a suitable pre-column. The pharmacokinetic analysis was performed applying a non-compartment model using the Kinetica 5.0 software (Thermo Scientific, Waltham, USA). All given parameters were obtained by trapezoid area calculation.

44 targets = test: SafetyScreen44 panel (Eurofins), whole panel; format: binding, mostly human; settings: 10 μM, out of 44 targets
Procedure: (§1) Compound enzyme inhibition effect was calculated as a % inhibition of control enzyme activity. […] Measurements were performed in duplicate.

[2] = molecular target: T1, human ether-à-go-go (hERG) potassium channel (Homo sapiens, UniProt Q12809); test: SafetyScreen44 binding; settings: 10 μM
T1 construct: Eurofins SafetyScreen44
T1 sequence (Q12809 whole entry): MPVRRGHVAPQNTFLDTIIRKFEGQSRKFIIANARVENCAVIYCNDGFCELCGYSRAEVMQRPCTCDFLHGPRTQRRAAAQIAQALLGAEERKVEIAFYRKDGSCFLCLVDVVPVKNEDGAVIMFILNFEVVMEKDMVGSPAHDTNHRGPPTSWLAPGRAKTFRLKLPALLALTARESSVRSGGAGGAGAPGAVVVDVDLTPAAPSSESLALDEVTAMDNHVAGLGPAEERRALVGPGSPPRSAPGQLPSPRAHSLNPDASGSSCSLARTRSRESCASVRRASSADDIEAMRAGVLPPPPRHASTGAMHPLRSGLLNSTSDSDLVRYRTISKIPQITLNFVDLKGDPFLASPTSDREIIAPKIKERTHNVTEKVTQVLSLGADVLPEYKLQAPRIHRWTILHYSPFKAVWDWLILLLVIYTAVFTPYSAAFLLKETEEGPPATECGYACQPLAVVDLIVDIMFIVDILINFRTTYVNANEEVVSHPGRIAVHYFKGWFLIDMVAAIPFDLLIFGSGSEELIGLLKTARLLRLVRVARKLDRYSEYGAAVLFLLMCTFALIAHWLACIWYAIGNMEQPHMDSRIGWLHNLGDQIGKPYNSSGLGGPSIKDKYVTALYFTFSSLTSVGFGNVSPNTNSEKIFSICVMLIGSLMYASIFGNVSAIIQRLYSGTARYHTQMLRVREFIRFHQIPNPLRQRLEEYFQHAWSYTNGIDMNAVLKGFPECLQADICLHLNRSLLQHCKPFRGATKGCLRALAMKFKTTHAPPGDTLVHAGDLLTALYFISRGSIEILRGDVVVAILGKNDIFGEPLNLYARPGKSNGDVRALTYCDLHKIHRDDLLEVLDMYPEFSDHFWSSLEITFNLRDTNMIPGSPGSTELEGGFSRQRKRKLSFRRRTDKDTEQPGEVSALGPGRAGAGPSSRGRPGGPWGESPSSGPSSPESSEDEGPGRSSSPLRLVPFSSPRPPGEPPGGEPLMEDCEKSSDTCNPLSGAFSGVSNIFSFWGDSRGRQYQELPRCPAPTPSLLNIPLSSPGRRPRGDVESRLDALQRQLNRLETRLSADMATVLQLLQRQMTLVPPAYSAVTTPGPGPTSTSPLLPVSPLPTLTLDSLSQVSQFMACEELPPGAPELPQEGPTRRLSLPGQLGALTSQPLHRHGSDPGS
Procedure: as §1

[3] = molecular target: T2, serotonin 5-HT2A receptor (Homo sapiens, UniProt P28223); test: SafetyScreen44 binding; settings: 10 μM; substantial = higher than 50%
T2 construct: Eurofins SafetyScreen44
T2 sequence (P28223 whole entry): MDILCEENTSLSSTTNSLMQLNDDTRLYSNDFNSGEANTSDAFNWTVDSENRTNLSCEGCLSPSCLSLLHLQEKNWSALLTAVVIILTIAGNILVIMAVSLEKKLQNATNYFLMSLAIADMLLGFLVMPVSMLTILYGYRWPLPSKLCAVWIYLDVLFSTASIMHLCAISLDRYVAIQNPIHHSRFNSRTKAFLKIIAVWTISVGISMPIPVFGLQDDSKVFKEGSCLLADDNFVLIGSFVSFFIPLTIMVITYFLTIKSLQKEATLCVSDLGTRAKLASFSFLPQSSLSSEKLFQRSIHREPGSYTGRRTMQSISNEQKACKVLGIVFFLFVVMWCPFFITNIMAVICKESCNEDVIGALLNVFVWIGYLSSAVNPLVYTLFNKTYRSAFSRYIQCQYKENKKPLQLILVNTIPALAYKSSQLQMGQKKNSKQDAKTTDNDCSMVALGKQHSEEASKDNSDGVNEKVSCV
Procedure: as §1

[4] = molecular target: T3, serotonin 5-HT2B receptor (Homo sapiens, UniProt P41595); test: SafetyScreen44 binding; settings: 10 μM; substantial = higher than 50%
T3 construct: Eurofins SafetyScreen44
T3 sequence (P41595 whole entry): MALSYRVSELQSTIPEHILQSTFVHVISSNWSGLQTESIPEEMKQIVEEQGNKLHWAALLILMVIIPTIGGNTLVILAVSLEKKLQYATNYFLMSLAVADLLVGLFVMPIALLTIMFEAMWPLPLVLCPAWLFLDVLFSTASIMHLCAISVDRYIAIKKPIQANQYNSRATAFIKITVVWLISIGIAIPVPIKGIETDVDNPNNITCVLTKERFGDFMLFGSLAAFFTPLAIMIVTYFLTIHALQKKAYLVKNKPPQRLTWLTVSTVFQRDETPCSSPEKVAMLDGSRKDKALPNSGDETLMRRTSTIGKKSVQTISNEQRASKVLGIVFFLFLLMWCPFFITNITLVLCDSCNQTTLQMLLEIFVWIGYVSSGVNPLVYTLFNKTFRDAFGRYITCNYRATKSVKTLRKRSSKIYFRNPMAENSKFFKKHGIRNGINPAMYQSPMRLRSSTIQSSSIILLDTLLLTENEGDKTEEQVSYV
Procedure: as §1

[5] = molecular target: T4, norepinephrine transporter (NET) (Homo sapiens, UniProt P23975); test: SafetyScreen44 binding; settings: 10 μM; substantial = higher than 50%
T4 construct: Eurofins SafetyScreen44
T4 sequence (P23975 whole entry): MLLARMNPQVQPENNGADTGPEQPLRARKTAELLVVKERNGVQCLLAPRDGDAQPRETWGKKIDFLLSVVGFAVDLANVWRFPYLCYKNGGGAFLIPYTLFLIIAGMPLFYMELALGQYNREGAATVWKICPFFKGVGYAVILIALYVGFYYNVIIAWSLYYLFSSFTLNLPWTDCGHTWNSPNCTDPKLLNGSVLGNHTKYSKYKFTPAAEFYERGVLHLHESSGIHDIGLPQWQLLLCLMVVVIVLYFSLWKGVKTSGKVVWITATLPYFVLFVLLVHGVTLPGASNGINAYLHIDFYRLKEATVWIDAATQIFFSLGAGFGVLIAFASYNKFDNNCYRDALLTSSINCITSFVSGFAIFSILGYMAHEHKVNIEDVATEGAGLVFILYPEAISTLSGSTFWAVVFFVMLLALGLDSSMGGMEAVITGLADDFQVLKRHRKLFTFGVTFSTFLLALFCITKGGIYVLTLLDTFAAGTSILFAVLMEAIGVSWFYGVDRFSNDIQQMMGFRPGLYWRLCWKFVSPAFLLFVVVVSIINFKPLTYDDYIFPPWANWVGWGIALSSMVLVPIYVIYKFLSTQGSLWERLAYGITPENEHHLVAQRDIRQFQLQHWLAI

[6] = molecular target: T5, serotonin transporter (SET) (Homo sapiens, UniProt P31645); test: SafetyScreen44 binding; settings: 10 μM; substantial = higher than 50%
T5 construct: Eurofins SafetyScreen44
T5 sequence (P31645 whole entry): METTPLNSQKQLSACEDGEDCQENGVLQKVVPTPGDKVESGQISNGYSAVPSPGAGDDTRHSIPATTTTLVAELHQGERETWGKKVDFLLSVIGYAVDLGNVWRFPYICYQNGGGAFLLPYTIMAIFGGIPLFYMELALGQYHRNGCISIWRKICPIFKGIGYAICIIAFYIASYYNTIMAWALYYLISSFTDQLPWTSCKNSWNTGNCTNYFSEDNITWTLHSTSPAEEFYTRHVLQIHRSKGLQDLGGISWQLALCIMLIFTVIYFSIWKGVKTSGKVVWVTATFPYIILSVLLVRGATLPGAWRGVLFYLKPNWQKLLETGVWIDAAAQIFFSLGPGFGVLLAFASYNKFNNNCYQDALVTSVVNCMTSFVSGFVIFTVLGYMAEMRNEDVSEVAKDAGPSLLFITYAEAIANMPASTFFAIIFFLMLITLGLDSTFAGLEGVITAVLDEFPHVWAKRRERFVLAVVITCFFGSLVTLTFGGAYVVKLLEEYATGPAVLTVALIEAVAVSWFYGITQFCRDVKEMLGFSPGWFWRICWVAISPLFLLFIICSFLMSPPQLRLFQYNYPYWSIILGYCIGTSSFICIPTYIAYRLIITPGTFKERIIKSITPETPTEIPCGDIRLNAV

[7] = test system: voltage-gated (KV) potassium channel; test: SafetyScreen44 binding; set-up: species or system rat; settings: 10 μM
Procedure: as §1

motor function of mice [8] = test: Accelerating rotarod test (motor function); format: in vivo; set-up: motor function in the accelerating rotarod test: dose or concentration left out as unconfirmed; settings: 15 min after administration
Procedure: (§2) Further studies were conducted to assess the in vivo efficacy of Compound 6 and Compound 10 in mice. In detail, experiments were performed in 8 to 16 weeks old C57BL/6N mice (Charles River, Sulzfeld, Germany) and animals with a genetic deletion of Slack (Slack^−/− mice^27) of either sex. Animals were housed on a 12 h light/dark cycle with access to food and water ad libitum. All experiments adhered to the guidelines of the International Association for the Study of Pain and to the ARRIVE (Animal Research: Reporting on In Vivo Experiments) guidelines, and were approved by and conducted in accordance with the regulations of the local Animal Welfare authorities (Regierungspräsidium Darmstadt, Germany). All behavioral studies were conducted during the light cycle of the day at room temperature (20-24° C.) by an observer blinded for the treatment of the animals and/or their genotype.
(§3) Accelerating rotarod and vertical pole test were performed as follows: Mice were placed on a rotarod treadmill (Ugo Basile, Italy) with increasing speed (4-40 rpm over 300 s), and were trained for 4-5 consecutive days. Only mice reaching the 300 seconds without falling off were included in the experiment. On the testing day, compounds were i.p. administered in a vehicle composed of 0.9% saline (Sigma-Aldrich) containing 10% 2-hydroxypropyl-β-cyclodextrine (ITW Reagents) and after 15 min the latency to fall off the accelerating rotarod was measured. Immediately thereafter, mice were placed head-upward on the top of a vertical pole with a rough surface (diameter 1 cm, height 40 cm) and the time until animals reached the ground was recorded (cut-off time 20 s). Means out of three trials for each time point were calculated for further analysis.

motor function of mice [9] = test: Vertical pole test (motor function); format: in vivo; settings: 3-30 mg i.p., after rotarod test
Procedure: as §2, §3

[10] = test system: chloroquine-induced scratching behavior of mice; test: Chloroquine-induced acute itch (scratching) model, systemic treatment; format: in vivo; settings: for chloroquine-induced scratching behavior: WT mice, 3, 10 or 30 mg/kg i.p. 15 min prior to s.c. chloroquine
Procedure: as §2
Acute itch behavior of the mice was monitored using a histamine-based, chloroquine-based and SLIGRL-based acute itch behavior model. In these models, three to four days before the experiment day, the fur on the dorsolateral aspect of the neck was shaved under brief isoflurane anesthesia. On the testing day, mice were habituated for 30 min in separate plexiglass cylinders (30 cm diameter). Compounds were dissolved in 0.9% saline containing 10% 2-hydroxypropyl-β-cyclodextrine and i.p. administered in a volume of maximal 200 μL. 15 min thereafter, the pruritogens chloroquine (200 μg), SLIGRL (100 μg) or histamine (800 μg), all dissolved in 0.9% saline (20 μL), were injected subcutaneously into the nape of the neck. Numbers of scratching bouts directed to the nape of the neck were assessed over 30 min by videotaping.

| SMILES | % AUCextra ([1]; 1 mg/kg) | AUC(0-inf) ([1]; 1 mg/kg) | AUC(0-t) ([1]; 1 mg/kg) | CL/F ([1]; 1 mg/kg) | Cmax ([1]; 1 mg/kg) | Cz ([1]; 1 mg/kg) | Tmax ([1]; 1 mg/kg) | Vd/F ([1]; 1 mg/kg) | half-life ([1]; 1 mg/kg) | tz ([1]; 1 mg/kg) | further results |
| --- | --- | --- | --- | --- | --- | --- | --- | --- | --- | --- | --- |
| OCCN1CCN(C2=Nc3ccccc3Oc3ccc(Cl)cc32)CC1 [Compound 5, 2-(4-(2-Chlorodibenzo[b,f][1,4]oxazepin-11-yl)piperazin-1-yl) ethan-1-ol] | 1.3% | 50.2 ng·h/mL | 49.6 ng·h/mL | 332 mL/min/kg | 44 ng/mL | 0.4 ng/mL | 15 min | 33.1 L/kg | 72 min | 8 h | – |
| O=C(O)COCCN1CCN(C2=Nc3ccccc3Oc3ccc(Cl)cc32)CC1 [Compound 6, 2-(2-(4-(2-Chlorodibenzo[b,f][1,4]oxazepin-11-yl)piperazin-1-yl)ethoxy) acetic acid] | 10.1% | 467 ng·h/mL | 420 ng·h/mL | 35.7 mL/min/kg | 240 ng/mL | 13.3 ng/mL | 15 min | 7.56 L/kg | 144 min | 8 h | Kp ([1]; mice, 1 mg/kg i.p., read-out: brain/plasma ratio): ≤ 0.3; number of targets with substantial binding inhibition (higher than 50%) (44 targets): 8; binding to hERG potassium channel in the off-target screen [2]: did not measurably bind; binding inhibition, 5-HT2A [3]: substantial binding; binding inhibition, 5-HT2B [4]: substantial binding; binding inhibition, NET [5]: substantial binding; binding inhibition, SET [6]: substantial binding; binding to voltage-gated (KV) potassium channel in the off-target screen [7]: did not measurably bind; motor function in the accelerating rotarod test (motor function of mice [8]): did neither impair the motor function; motor function in the vertical pole test (motor function of mice [9]): did neither impair the motor function; chloroquine-induced scratching in Slack−/− mice ([10]; Slack−/− mice, 10 mg/kg): did not significantly alter; chloroquine-induced scratching behavior [10]: ameliorate the scratching behavior in a dose-dependent manner; antipruritic effect after pretreatment with Slack inhibitor Compound 31 ([10]; WT mice, Compound 31 30 mg/kg i.p. 5 min prior to Compound 6 30 mg/kg i.p.): partly antagonized |
| OCCOCCN1CCN(C2=Nc3ccccc3Sc3ccc(Cl)cc32)CC1 [Compound 7, 2-(2-(4-(2-Chlorodibenzo[b,f][1,4]thiazepin-11-yl)piperazin-1-yl)ethoxy) ethan-1-ol] | 0.9% | 71.9 ng·h/mL | 71.2 ng·h/mL | 232 mL/min/kg | 87.2 ng/mL | 0.3 ng/mL | 15 min | 31.4 L/kg | 96 min | 8 h | – |
| O=c1nc(CN2CCN(C3=Nc4ccccc4Oc4ccc(Cl)cc43)CC2)[nH][nH]1 [Compound 10, 5-((4-(2-Chlorodibenzo[b,f][1,4]oxazepin-11-yl)piperazin-1-yl)methyl)-1,2-dihydro-3H-1,2,4-triazol-3-one] | – | – | – | – | – | – | – | – | – | – | Kp ([1]; 1 mg/kg): ≤ 0.3; number of targets with substantial binding inhibition (higher than 50%) (44 targets): 5; binding to hERG potassium channel in the off-target screen [2]: did not measurably bind; binding inhibition, 5-HT2A [3]: substantial binding inhibition; binding inhibition, 5-HT2B [4]: substantial binding inhibition; binding to voltage-gated (KV) potassium channel in the off-target screen [7]: did not measurably bind; motor function in the accelerating rotarod test (motor function of mice [8]): did neither impair the motor function; motor function in the vertical pole test (motor function of mice [9]): did neither impair the motor function; chloroquine-induced scratching behavior [10]: ameliorate the scratching behavior in a dose-dependent manner |

Further lines, with some results ahead:

| % AUCextra ([1]; 1 mg/kg) | AUC(0-inf) ([1]; 1 mg/kg) | AUC(0-t) ([1]; 1 mg/kg) | CL/F ([1]; 1 mg/kg) | Cmax ([1]; 1 mg/kg) | Cz ([1]; 1 mg/kg) | Tmax ([1]; 1 mg/kg) | Vd/F ([1]; 1 mg/kg) | half-life ([1]; 1 mg/kg) | tz ([1]; 1 mg/kg) | SMILES | further results |
| --- | --- | --- | --- | --- | --- | --- | --- | --- | --- | --- | --- |
| 19.3% | 84 ng·h/mL | 67.8 ng·h/mL | 199 mL/min/kg | 25.6 ng/mL | 3.3 ng/mL | 15 min | 58.5 L/kg | 204 min | 8 h | CN1CCN(C2=Nc3ccccc3Oc3ccc(C(F)(F)F)cc32)CC1 [Compound 2, 11-(4-Methylpiperazin-1-yl)-2-(trifluoromethyl)dibenzo[b,f][1,4]oxazepine] | – |
| 5.0% | 58.3 ng·h/mL | 55.4 ng·h/mL | 286 mL/min/kg | 32.3 ng/mL | 1.0 ng/mL | 30 min | 50.1 L/kg | 120 min | 8 h | CN1CCCN(C2=Nc3ccccc3Oc3ccc(C(F)(F)F)cc32)CC1 [Compound 3, 11-(4-Methyl-1,4-diazepan-1-yl)-2-(trifluoromethyl)dibenzo[b,f][1,4]oxazepine] | – |
| 11.4% | 122 ng·h/mL | 108 ng·h/mL | 137 mL/min/kg | 40 ng/mL | 4.1 ng/mL | 30 min | 27.7 L/kg | 138 min | 8 h | CN1CCN(C2=Nc3cc(F)ccc3Oc3ccc(C(F)(F)F)cc32)CC1 [Compound 4, 8-Fluoro-11-(4-methylpiperazin-1-yl)-2-(trifluoromethyl)dibenzo[b,f][1,4]oxazepine] | – |
| 20.7% | 851 ng·h/mL | 675 ng·h/mL | 19.6 mL/min/kg | 316 ng/mL | 31.4 ng/mL | 15 min | 6.58 L/kg | 234 min | 8 h | O=C(O)COCCN1CCN(C2=Nc3ccccc3Oc3ccc(C(F)(F)F)cc32)CC1 [Compound 8, 2-(2-(4-(2-(Trifluoromethyl)dibenzo[b,f][1,4]oxazepin-11-yl)piperazin-1-yl)ethoxy) acetic acid] | – |
| 0.6% | 123 ng·h/mL | 123 ng·h/mL | 135 mL/min/kg | 242 ng/mL | 0.3 ng/mL | 15 min | 21.1 L/kg | 108 min | 8 h | O=C(O)COCCN1CCCN(C2=Nc3ccccc3Oc3ccc(C(F)(F)F)cc32)CC1 [Compound 9, 2-(2-(4-(2-(Trifluoromethyl)dibenzo[b,f][1,4]oxazepin-11-yl)-1,4-diazepan-1-yl)ethoxy) acetic acid] | – |
